Results reported in patent US4753949A, “2-chloronicergoline having antihypoxic activity” (Richter Gedeon Vegyeszeti Gyar Rt., priority 1985, dated 1988).

Experiments:
[1] = Learning-facilitating effect: one-trial passive avoidance; type: in vivo, mice (CFLP); details: for Facilitation of learning, avoidance latency period as % of the control: 5.0 mg/kg p.o., mice, retest after one week, control latency 164.0 ± 34.4 sec (nicergoline), 77.0 ± 16.4 sec (2-chloronicergoline)
Procedure: (§1) The studies were carried out on male SHR rats weighing 160 to 180 g as well as on CFLP mice of both sexes weighing 18 to 21 g. The compounds to be tested were orally administered in a volume of 5 ml/kg of body-weight (in the case of rats) or in a volume of 10 ml/kg of body-weight (in case of mice) at the 60th minute before beginning the experiment.
(§2) The results are expressed as percentages.
Investigation of the learning-facilitating effect
[W. B. Essmann and H. Alpern: Psychol. Rep. 41, 731 (1964)]
Mice (n=10) were treated with 5 mg/kg doses of the compounds to be tested, then the animals were conditioned by the one-trial passive avoidance method. The animals were placed on the platform of the test box, whereupon after entering into the dark box, they received an electric footshock (1.5 mA, 0.3 sec). One week later, the animals were retested: the mean of the latency period of the entering (avoidance) was compared to the control value and expressed as the percentage thereof.

α1-adrenergic receptor = α1-adrenergic receptor binding (3H-prazosine); parameters: species or system Hannover Wistar rats; details: for IC50 value of α-adrenergic receptor activity (in words) / α-adrenergic receptor activity compared between 2-chloronicergoline and nicergoline (in words): Table 2 discussion; for IC50: rat cortex membrane, 0.5 nmole 3H-prazosine, 23° C., 30 min, pH 8
D-2 receptor = molecular target: T1, D-2 receptor (Rattus norvegicus, UniProt P61169); assay: D-2 receptor binding (3H-spiroperidol); parameters: species or system Hannover Wistar rats; details: for IC50: rat striatum, 0.5 nmole 3H-spiroperidol, 37° C., 15 min, pH 7.4
T1 construct: the striatum from their cortex was prepared; from tissue; host or cells: striatum membranes of Hannover Wistar rats
T1 sequence (P61169 whole entry): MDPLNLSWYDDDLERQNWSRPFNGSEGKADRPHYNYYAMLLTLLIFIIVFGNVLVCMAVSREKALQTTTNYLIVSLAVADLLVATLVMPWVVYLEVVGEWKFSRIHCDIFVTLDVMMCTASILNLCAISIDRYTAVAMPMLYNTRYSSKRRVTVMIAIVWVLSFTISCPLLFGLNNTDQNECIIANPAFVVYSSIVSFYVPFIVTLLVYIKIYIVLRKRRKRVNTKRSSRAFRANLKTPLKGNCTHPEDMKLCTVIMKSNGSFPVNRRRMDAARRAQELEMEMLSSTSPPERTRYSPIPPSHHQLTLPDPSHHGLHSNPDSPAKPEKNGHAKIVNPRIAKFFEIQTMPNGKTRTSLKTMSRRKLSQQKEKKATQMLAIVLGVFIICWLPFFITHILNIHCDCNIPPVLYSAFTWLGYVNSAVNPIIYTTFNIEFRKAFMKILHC
Procedure: Investigation of the D-2 receptor binding
Hannover Wistar rats were decapitated and the striatum from their cortex was prepared. The striata were homogenized in a 10-fold volume of a cold buffer solution (50 mmoles of TRIS HCl, 120 mmoles of NaCl, 2 mmoles of KCl, 1 mmole of MgCl2 and 5 mmoles of CaCl2 at pH 7.4) and centrifuged at 45000 g for 15 minutes.
For investigating the D-2 receptor binding, a membrane preparation, a buffer, a ligand (0.5 nmole of ^3 H-spiroperidol) and the compound to be tested in a defined concentration were used in a total volume of 2 ml.

[2] = system: 45Ca2+ uptake into synaptosomes; assay: 45Ca2+ uptake into synaptosomes; type: biochemical; details: rat brain cortex synaptosomes, K+ (45 mmoles) induced, 37° C., pre-incubation 20 min; read-out: IC50 45Ca2+ (synaptosomal uptake)
Procedure: Investigation of the ^45 Ca^2+ uptake into synaptosomes
The synaptosomal fraction was prepared from rat brain cortex according to the method of Wu et al. [J. Neurochem. 39, 700 (1982)], with a protein content of 20 mg/ml.
For the experiment, a buffer solution (112 mmoles of NaCl, 5 mmoles of KCl, 1.3 mmoles of MgCl2, 1.2 mmoles of NaH2 PO4, 1.2 mmoles of CaCl2, 10 mmoles of glucose and 20 mmoles of TRIS adjusted to pH 7 by carbogen at 37° C.) was used. The mixture containing the buffer solution, the compound to be tested and 1 mg of synaptosomes in a total volume of 1 ml was pre-incubated at 37° C. for 20 minutes and then, the K^+ (45 mmoles) induced ^45 Ca^2+ […] and, for control, the Na^+ (45 mmoles) induced ^45 Ca^2+ uptake were measured. The reaction was stopped by adding 5 ml of a buffer solution (120 mmoles of NaCl, 5 mmoles of KCl, 5 mmoles of EGTA and 20 mmoles of TRIS, at pH 7.4). […] The radioactivity remaining on the filter was determined in 10 ml of scintillation solution.

[3] = Antihypoxic effect: survival time under hypobaric hypoxic conditions (170 mmHg); type: in vivo, rats (male SHR); details: for Antihypoxic effect, survival time as % of the control: rats, 60 min before, control 3.3 ± 0.19 min
Procedure: as §1, §2
Investigation of the antihypoxic effect
[I. Baumel et al.: Proc. Soc. Exp. Ther. Biol. N.Y. 132, 629 (1969]
Rats (n=5) were treated with various doses of the compounds to be tested and after 60 minutes the survival time was measured under hypobaric hypoxic conditions (170 mmHg). In the Table, the survival time is expressed as the percentage of that of the control group.

α2-adrenergic receptor [4] = molecular target: T2, α2-adrenergic receptor (Rattus norvegicus, UniProt P22909); details: versus nicergoline
T2 sequence (P22909 1-465): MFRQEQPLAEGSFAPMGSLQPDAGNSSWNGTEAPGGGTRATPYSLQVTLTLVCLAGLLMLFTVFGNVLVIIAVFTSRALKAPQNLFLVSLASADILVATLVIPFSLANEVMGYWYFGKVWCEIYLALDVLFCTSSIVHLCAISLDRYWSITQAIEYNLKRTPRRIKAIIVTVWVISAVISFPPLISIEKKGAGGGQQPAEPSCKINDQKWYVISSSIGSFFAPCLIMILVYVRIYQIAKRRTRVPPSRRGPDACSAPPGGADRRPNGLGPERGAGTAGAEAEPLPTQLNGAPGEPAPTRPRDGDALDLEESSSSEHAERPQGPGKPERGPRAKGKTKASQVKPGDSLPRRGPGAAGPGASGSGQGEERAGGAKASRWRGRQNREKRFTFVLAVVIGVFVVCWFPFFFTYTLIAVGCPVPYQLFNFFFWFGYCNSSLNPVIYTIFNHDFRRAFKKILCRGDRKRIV
Procedure: (§3) For the determination of the non-specific binding, 10 μmoles of phentolamine were used. Investigation of the α2 -adrenergic receptor binding
(§4) Hannover Wistar rats were decapitated, their cortexes were prepared and homogenized in a 30-fold volume of a buffer solution (50 μmoles of TRIS HCl, at pH 7.4). The membrane was centrifuged at 45000 g twice for 15 minutes and then suspended in the buffer in a concentration of 50 ml/g (in a protein concentration of 0.9 to 1.0 mg/ml).
(§5) For investigating the α2 -receptor binding, a membrane preparation, a ligand (1.0 nmole of ^3 H Rx 781094=^3 H-1 dazoxane) and the compound to be tested were used in a total volume of 1 ml. After an incubation at 23° C. for 20 minutes, the samples were filtered through a Whatman GF/B filter and washed 4 times with 4 ml of buffer solution each.
(§6) For the determination of the non-specific binding, 10 μmoles of phentolamine were used.

α2-adrenergic receptor [5] = molecular target: T2, α2-adrenergic receptor; assay: biochemical
Procedure: as §3, §4, §5, §6

[6] = Antagonism of the acquisition-inhibitory effect of hypoxia (shuttle box, normobaric hypoxia, 6% O2); type: in vivo, rats (male SHR); details: for Antagonism of the acquisition-inhibitory effect of hypoxia, CAR Δ %: rats, third day, 6% O2
Procedure: as §1, §2
Antagonism of the acquisition-inhibitory effect of hypoxia
Rats (n=4) were daily treated with various doses of the compounds to be tested, then conditioned in an automatic six-channel shuttle box (VKI) for 3 days [with the following parameters: 50 cycles/day, 15 seconds intersignal period, 15 seconds light stimulus, 10 seconds light and electric footshock (0.8 mA)] under normobaric hypoxic conditions (6% O2). The values of the conditioned avoidance responses on the third day were expressed as the percentage of the deviation from the control value (CAR Δ%).

α-adrenergic receptor = details: Bernardi et al. 1975; cited from earlier work
[7] = literature; cited from earlier work

| SMILES | Facilitation of learning, avoidance latency period as % of the control [1] | learning-facilitating effect compared with nicergoline (in words) ([1]; same doses, versus nicergoline) | IC50 value of α-adrenergic receptor activity (in words) (α1-adrenergic receptor) | α-adrenergic receptor activity compared between 2-chloronicergoline and nicergoline (in words) (α1-adrenergic receptor) | IC50 (α1-adrenergic receptor) | α-adrenoceptor selectivity (in words) (α1-adrenergic receptor; shown by D-2/α1 selectivity ratio) | IC50 (D-2 receptor) | Selectivity ratio D-2/α1 (D-2 receptor; ratio of IC50 values) | D-2 receptor activity, times lower than that of nicergoline (D-2 receptor; versus nicergoline) | IC50 [2] | hypoxic tolerance (in words) ([3]; 1.0 mg/kg) | Antihypoxic effect, survival time as % of the control ([3]; 1.0 mg/kg p.o.) | Antihypoxic effect, survival time as % of the control ([3]; 2.5 mg/kg p.o.) | α2-adrenoceptor activity, times as high as that of nicergoline (α2-adrenergic receptor [4]) | IC50 (α2-adrenergic receptor [5]) | Antagonism of the acquisition-inhibitory effect of hypoxia, CAR Δ % ([6]; 2.5 mg/kg p.o.) | dose normalizing deteriorated performance under normobaric hypoxia, times lower than that of nicergoline ([6]; versus nicergoline) | α-adrenerg blocking effect (in words) (α-adrenergic receptor) | vasodilatory effect (in words) [7] | Antagonism of the acquisition-inhibitory effect of hypoxia, CAR Δ % ([6]; 10.0 mg/kg p.o.) |
| --- | --- | --- | --- | --- | --- | --- | --- | --- | --- | --- | --- | --- | --- | --- | --- | --- | --- | --- | --- | --- |
| CO[C@]12C[C@@H](COC(=O)c3cncc(Br)c3)CN(C)[C@@H]1Cc1c(Cl)n(C)c3cccc2c13 [2-Chloronicergoline, 2-chloronicergoline] | 182% | significantly better than that of nicergoline | low | practically identical | 9.5 nM | pronounced | 877 nM | 92.3 nmole/nmole | 12 times | 7000 nM | significantly increased | 155% | 276% | about 13 times | 24.2 nM | 150% | 4 times | – | – | – |
| CO[C@]12C[C@@H](COC(=O)c3cncc(Br)c3)CN(C)[C@@H]1Cc1c(Br)n(C)c3cccc2c13 [2-bromonicergoline] | – | – | – | – | – | – | – | – | – | – | – | – | – | – | – | – | – | α-adrenerg blocking effect | vasodilatory | – |
| CO[C@]12C[C@@H](COC(=O)c3cncc(Br)c3)CN(C)[C@@H]1Cc1cn(C)c3cccc2c13 [Nicergoline, 1,6-dimethyl-10α-methoxyergoline-8β-methanol 5-bromonicotinate] | 131% | – | low | practically identical | 5.3 nM | – | 71.4 nM | – | – | 26700 nM | – | 103% | 109% | – | 176 nM | – | – | – | peripheral vasodilatory agent | 150% |
